According to patent US20170105647A1, “SYSTEMS AND METHODS FOR IDENTIFYING NEUROBIOLOGICAL BIOMARKERS USING EEG” (Children's Medical Center Corporation, priority 2014, published 2017):
Several values for one entry are separate records, joined by “and”; a condition that tells them apart may be missing. Equal values may be shown once.

How the values were obtained:
Assay type in all cases: in vivo, human
[1] = tested on: children with regressive autism (R-ASD), STAR group; test: Subjective evaluation of EEG abnormality, change from first to second study
Description: Subjective Evaluation of EEG Abnormality: All first and second EEG studies were visually reassessed by a pediatric electroencephalographer blinded to subject history and group identity. All EEGs were reviewed in randomly selected order with respect to group and study order. Each EEG was scored as showing in ascending order of abnormality (if present): paroxysmal sharp theta, sharp waves, and spike or spike wave discharges. After this “blinded” estimation was completed, EEG results were sorted into first and second EEG study order, without group identity; subsequently the electroencephalographer compared each subject's two sequential EEGs and classified their scores as showing “worsening”, “no change”, or “improvement” between the first and second study.

[2] = tested on: children with regressive autism (R-ASD), STAR group; test: 4 Hz frequency modulated auditory evoked response (FMAER), before vs after steroid treatment; conditions: for Mean Diff. (mean of pre to post difference of 4 Hz FMAER spectral power): STAR group n = 20, oral 2 mg/kg/day
Description: In this example, subjects with regressive autism were utilized to determine whether application of a corticosteroid would improve language function and show an improved 4 Hz FMAER. […] A pharmacologically untreated clinical convenience sample of children with ASD served as controls.
Steroid Treated Autism with Regression (STAR): The target group of study subjects was limited to children aged 3-5 years old, diagnosed as having autism with a historically documented period of regression at onset. Regression was defined as the loss of age appropriate language, communication, cognitive ability, and behavior determined by the referring physician and confirmed by the treating neurologist. Patients with a slowly developing plateau or a very slow regression over a prolonged period of time, as opposed to an abrupt regression, were not included in the STAR group.
Steroid Treatment STAR Patients: Oral prednisolone (Prelone™ or Orapred™) was administered by the parents on a daily basis at 2 mg/kg/day. Dosage was occasionally down-adjusted on the basis of minor complications.
All subjects' electrophysiological data utilized in this study were gathered from 30 scalp channels via gold cup electrodes applied with collodion after careful measurement. A 31st channel carried the FMAER trial marker. A 32nd channel carried eye movement and blink artifact information. Data were digitized at 256 Hz after amplification by a Cardionics™ 32 channel EEG amplifier (Cardionics Inc. 910 Baystar Blvd, Webster, Tex. 77598 USA) set to 1-100 Hz pass band. The 30 EEG scalp channels used included the following: FP1, FP2, F7, F3, FZ, F4, F8, FC5, FC1, FC2, FC6, T7, C3, CZ, C4, T8, CP5, CP1, CP2, CP6, P7, P3, PZ, P4, P8, O1, OZ, O2, TP9, and TP10 [28]. Data for the FMAER were gathered over 5-20 minutes with additional time allowed for rest breaks as indicated. The patient and a parent, when behaviorally indicated, were together within view of the technologist through a one-way mirror window in a sound-shielded room, adjacent to the recording equipment. Off-line, the EEG data and accompanying trial markers were visually evaluated and epochs containing excessive eye-blink, muscle and movement artifact were marked for removal from subsequent analysis. All 30 channel data were visually inspected for EEG abnormalities and for creating the common average reference. For the current study, FMAER analysis was restricted to 14 active scalp electrodes: F7, F8, T7, T8, P7, P8, TP9, TP10, F3, F4, C3, C4, P3, and P4.
Frequency Modulated Auditory Evoked Response (FMAER): Language comprehension requires decoding of rapidly changing speech streams; detection of FM within speech has been hypothesized as essential for accurate phoneme detection and word comprehension. The FMAER was developed as a steady-state EP to assess the brain's response to rapid changes in the frequency modulation (FM) of an applied auditory stimulus in extension of and based upon the pioneering work of Green, Stefanatos and others. […] Midline frontal electrodes (FZ, FC1, FC2) usually manifest bilateral overlapping source dipole projection. […] The FMAER may be normal, or as in pathology, of low amplitude, distorted, or absent. In rare cases of pathology the FMAER source location may be outside the usual STG location and/or the source dipole may point in unexpected directions..
As previously detailed, the FMAER was formed from a carrier sine wave at 1000 Hz frequency modulated by a slower 10 Hz sine wave causing the frequency of the carrier wave to shift (“deviate”) between […] at the 10 Hz rate, producing a warbling tone. The 10 Hz sine wave was then amplitude modulated by a slower 4 Hz sine wave such that the warbling (FM modulation) was sinusoidally turned on and off (AM modulated) at the 4 Hz rate. This process caused the 10 Hz “warbling” of the 1000 Hz sine wave carrier to be sinusoidally turned fully on and off (100% modulation) at 4 Hz. […]

[3] = tested on: children with regressive autism (R-ASD), STAR group; test: Clinical Language Status Questionnaire (CLSQ) language assessment
Description: Language Assessment, STAR Group: STAR group subjects were followed by their child neurologists using a clinical language assessment, referred to as the “Clinical Language Status Questionnaire (CLSQ)” which was developed in-house well prior to the current study. It is as yet unpublished. The assessment was designed to assist pediatric neurologists involved in the pharmacological treatment of neurological disorders, in estimating language progress or lack thereof—from a child's parent(s)' report and the clinician's direct assessment at the time of a clinical visit. It involves evaluation of both the child's current best expressive and receptive language performance. In the current study, documentation of lack of response improvement or plateau, along with assessment of medical complication(s), constituted the primary evidence used for treatment discontinuation. […] The term “Appears normal” (Table 1) was defined as the clinician's and family's report of normal, age-appropriate speech. None of the children in this study received this score. “Appears nearly normal” was defined as context and age appropriate speech with evidence of mispronunciations, poor or odd word choice, unusual fluency or unusually sparseness, unusual grammatical errors such as errors in tense, pronoun gender match and/or pluralization, and/or requirement of adult speech simplification in order to assure comprehension relative to age expectancy. The difference between “short meaningful 1-2 word phrases” and “meaningful 3+ word phrases” is self-explanatory. Although many well developed language tests exist, as documented by the American Speech-Language-Hearing Association (www.asha.org/assessments.aspx), most tend to be detailed yet too coarsely grained to capture this population's limited language range. They are also typically too time-consuming for repeated administration by neurologists during recurring, clinical check-in visits. In contrast, the CLSQ may be completed in less than ten minutes. An additional advantage of the CLSQ for the current study was its comprehensiveness in capturing the full—while limited—range of language change observed in this patient population. Parents are shown short phrases (without the numerical scores) and asked to identify their child's current relevant expressive and receptive status. The neurologist stands by to clarify, assist, and help resolve two caregivers' divergent opinions. Neurologists using the CLSQ are sensitive to the language performance definitions in question. The study subjects' CLSQ score assignments occurred without prior knowledge of the current study.

[4] = tested on: children with regressive autism (R-ASD), STAR group; test: DSM-IV criteria for Autistic Disorder, scaled behavioral score
Description: Behavioral Assessment: The DSM-IV criteria for Autistic Disorder (299.0), aside from employment for diagnosis, were scaled in terms of severity for each STAR group child and the sum of the scaled scores was assigned as behavioral score. The direction of scaling was defined such that the higher the score was, the more severe the behavioral manifestations of ASD were. The symptom items and scaling are described in Table 2. […] Summed scaled item scores were assigned in order to quantify behavioral change in analogy to language change. For the current study scores were selected for the office visit nearest to the first and the second EEG/FMAER studies respectively. Scorers had no knowledge of the current study's goals or design, the future group status of subjects, or the subjects' FMAER results. The NSA group subjects lacked the DSM-IV based behavior scores.

[5] = STAR group n = 20, blinded visual EEG rating
[6] = STAR group n = 20, pre- to post-treatment, CLSQ scale 0-10

In the case of C[C@]12C=CC(=O)C=C1CC[C@@H]1[C@@H]2[C@@H](O)C[C@@]2(C)[C@H]1CC[C@]2(O)C(=O)CO [prednisolone], the “EEG change Time 1 to Time 2: number of subjects Improved” value [1, 5] was 3, the “EEG change Time 1 to Time 2: number of subjects No Change” value [1, 5] was 10 and the “EEG change Time 1 to Time 2: number of subjects Worse” value [1, 5] was 7. The “Steroid effect on EEG abnormalities by visual inspection” value ([1]; STAR vs NSA, Fisher's exact test n.s.) was “little evidence for a physiologically meaningful steroid effect on EEG”, the “Electrode measurements of the FMAER 4 Hz response with significant change before vs after steroid therapy” value ([2]; STAR group, matched-paired t-test, 14 electrodes) was “nine of 14 and 9 of 14” and the “FMAER response distortion (spectral spread) after steroid treatment” value ([2]; all STAR subjects, FFT of FMAER) was “reduction of distortion”. The “Mean Diff. (mean of pre to post difference of 4 Hz FMAER spectral power)” value ([2]; electrode C3) was 24.15 μV^2/Hz, the “Mean Diff. (mean of pre to post difference of 4 Hz FMAER spectral power)” value ([2]; electrode C4) was 22.66 μV^2/Hz and the “Mean Diff. (mean of pre to post difference of 4 Hz FMAER spectral power)” value ([2]; electrode F3, mean 9.125 months) was 47.18 μV^2/Hz. For the same compound, the “Mean Diff. (mean of pre to post difference of 4 Hz FMAER spectral power)” value ([2]; electrode F4) was 64.31 μV^2/Hz, the “Mean Diff. (mean of pre to post difference of 4 Hz FMAER spectral power)” value ([2]; electrode F7) was 3.38 μV^2/Hz and the “Mean Diff. (mean of pre to post difference of 4 Hz FMAER spectral power)” value ([2]; electrode F8) was 18.47 μV^2/Hz. For the same compound, the “Mean Diff. (mean of pre to post difference of 4 Hz FMAER spectral power)” value ([2]; electrode P3) was 10.49 μV^2/Hz, the “Mean Diff. (mean of pre to post difference of 4 Hz FMAER spectral power)” value ([2]; electrode P4) was 10.52 μV^2/Hz and the “Mean Diff. (mean of pre to post difference of 4 Hz FMAER spectral power)” value ([2]; electrode P7) was 65.08 μV^2/Hz. The “Mean Diff. (mean of pre to post difference of 4 Hz FMAER spectral power)” value ([2]; electrode P8) was 77.83 μV^2/Hz, the “Mean Diff. (mean of pre to post difference of 4 Hz FMAER spectral power)” value ([2]; electrode T7) was 15.49 μV^2/Hz and the “Mean Diff. (mean of pre to post difference of 4 Hz FMAER spectral power)” value ([2]; electrode T8) was 30.60 μV^2/Hz. For the same compound, the “Mean Diff. (mean of pre to post difference of 4 Hz FMAER spectral power)” value ([2]; electrode TP9) was 56.91 μV^2/Hz, the “Mean Diff. (mean of pre to post difference of 4 Hz FMAER spectral power)” value ([2]; electrode TP10) was 83.49 μV^2/Hz and the “Expressive Language change Time 1 to Time 2: number of subjects Better” value ([3]; STAR group n = 20) was 17. For the same compound, the “Expressive Language change Time 1 to Time 2: number of subjects NoDiff” value ([3]; STAR group n = 20) was 2, the “Expressive Language change Time 1 to Time 2: number of subjects Worse” value ([3]; STAR group n = 20) was 1 and the “Receptive Language change Time 1 to Time 2: number of subjects Better” value ([3]; STAR group n = 20) was 17. For the same compound, the “Receptive Language change Time 1 to Time 2: number of subjects NoDiff” value ([3]; STAR group n = 20) was 3, the “Receptive Language change Time 1 to Time 2: number of subjects Worse” value ([3]; STAR group n = 20) was 0 and the “Mean Diff. of CLSQ score, Time 1 to Time 2, Expressive language” value [3, 6] was 4.10. The “Mean Diff. of CLSQ score, Time 1 to Time 2, Receptive language” value [3, 6] was 4.80, the “STAR group subjects showing improvement in language ratings” value ([3]; receptive and expressive, study 1 to study 2) was 17/20 and the “Average DSM-IV Score (mean of 14 scored items, 0-3 each)” value ([4]; After treatment) was 0.9857. For the same compound, the “Average DSM-IV Score (mean of 14 scored items, 0-3 each)” value ([4]; Before treatment (baseline)) was 2.0677 and the “Scaled DSM-IV symptom summary scores after steroid treatment” value ([4]; p≦0.00001) was “highly significant improvement”.
